Among the data in ChEMBL document CHEMBL1159302, “Symplostatin 3, a new dolastatin 10 analogue from the marine cyanobacterium Symploca sp. VP452” (J Nat Prod, 2002) are Activity and IC50 values, retold here.

Each structure is given as a SMILES string. The source made the active and inactive calls. The rule behind the calls is not given here. Non-standard residues stand in square brackets, D forms with d. Residues, ends and D or L forms follow the SMILES beside them. *: point of attachment. Dolaproine = CO[C@@H]([C@@H]1CCCN1)[C@@H](C)C(=O)O; Dil = CC[C@H](C)[C@H](NC)[C@@H](CC(=O)O)OC; NMe2Val = CC(C)[C@@H](C(=O)*)N(C)C; PhLac = O=C(O)[C@@H](O)Cc1ccccc1

What all share (type): functional, cell-based
Assay [1] relates to A10. Put plainly: Induction of cellular microtubule disrupting activity in rat A10 cells at 1 ug/ml after 24 hrs by indirect immunofluorescence technique.
The subject of assay [2] is A10. In words: Induction of actin filament disrupting activity in rat A10 cells by rhodamine-phalloidin staining.
Another assay relates to LoVo. In words: Cytotoxicity against human LoVo cells by SRB assay.
For assay [3], the system named is A10. Put plainly: Induction of cellular microtubule disrupting activity in rat A10 cells at 0.1 ug/ml after 24 hrs by indirect immunofluorescence technique.
The subject of assay [4] is A10. Put plainly: Effect on morphology in rat A10 cells assessed as breakdown of nucleus into micronuclei.
In another assay the test system is KB. In words: Cytotoxicity against human KB cells by SRB assay. In general terms: The SRB assay estimates cell density from bound dye.

For the compound `CC[C@H](C)[C@@H]([C@@H](CC(=O)N1CCC[C@H]1[C@H](OC)[C@@H](C)C(=O)O[C@@H](Cc1ccccc1)C(=O)O)OC)N(C)C(=O)[C@@H](NC(=O)[C@H](C(C)C)N(C)C)C(C)C` [SYMPLOSTATIN 3] (NMe2Val-V[Dil][Dolaproine][PhLac]-OH), the outcome in the assay on A10 [1], in the assay on A10 [3] and in the assay with A10 [4] was Active. The outcome with A10 [2] was inactive. In addition, the IC50 in the assay on LoVo was 10.3 nM; in the assay with KB, 3.9 nM.

As usually defined, the IC50 is the midpoint of a concentration-inhibition curve. Low values mean greater potency, high ones weaker potency.
